According to patent publication US12590095B2, “Crystalline forms of an orally available, selective kit and PDGFR kinase inhibitor” (Sandoz AG, priority 2019, dated 2026):

How the values were obtained:
Type in all cases: physicochemical
[1] = Gravimetric moisture sorption (GMS); details: for mass change during the sorption cycle: GMS, (25±0.1)° C.; for solid form by powder X-ray diffraction after the GMS experiment: after full sorption/desorption cycle 0-90% RH; for hygroscopicity: judged from GMS mass change
Experimental: Moisture sorption isotherms were recorded along with other samples with an SPSx-1μ moisture sorption analyzer (ProUmid, Ulm). The measurement cycle was started at ambient relative humidity (RH) of 25% (Form A) or 40% (Form B and Form Hy1). Relative humidity was then decreased to 5% in 5% steps, followed by a further decrease to 3% and to 0%. Afterwards RH was increased from 0% to 90% in a sorption cycle and decreased to 0% in a desorption cycle in 5% steps. Finally, the RH was increased to a relative humidity of 25% (Form A) or 40% (Form B and Form Hy1) in 5% steps. The time per step was set to a minimum of 2 hours and a maximum of 6 hours. If an equilibrium condition with a constant mass of +0.01% within 1 hour was reached before the maximum time for all examined samples the sequential humidity step was applied before the maximum time of 6 hours. If no equilibrium was achieved the consecutive humidity step was applied after the maximum time of 6 hours. The temperature was (25±0.1)° C.

[2] = Slurry experiments in aqueous isopropanol, form checked by PXRD; details: for form found by PXRD after slurry: aqueous isopropanol 3:1, 0° C.
Experimental: Form A and Form B of avapritinib were each slurried in aqueous isopropanol [4 mL, 3:1 (volume:volume)] at 0° C., 20° C. and 40° C., respectively. Samples were taken after 1 and 5 days and investigated by powder-X-ray diffraction.

[3] = Thermogravimetric analysis (TGA); details: for TGA mass loss: 10 K/min
Experimental: TGA was performed on a Mettler TGA/DSC 1 instrument. The samples (8.29 mg Form A, 8.11 mg Form B, 4.12 mg Form Hy1) were each weighed into a 100 microliter aluminum pan closed with an aluminum lid. The lid was automatically pierced at the beginning of the measurement. The samples were each heated from 25 to 250° C. at a rate of 10 K/min. Nitrogen (purge rate 50 mL/min) was used as purge gas.

[4] = Storage stability under various stress conditions, form checked by PXRD; details: 6 months
Source text: Avapritinib Form A, Form B and hydrate Form Hy1 were each subjected to the various stress conditions listed in Table 8 for 6 months and the samples were investigated by powder X-ray diffraction.

Structure (SMILES)	mass change during the sorption cycle ([1]; 0-90% RH)	solid form by powder X-ray diffraction after the GMS experiment [1]	hygroscopicity [1]	stability in slurry experiments ([2]; all applied conditions (0, 20, 40° C.; 1 and 5 days))	thermodynamic relationship of Form A and Form B ([2]; from slurry experiments and DSC at 1 K/min)	TGA mass loss ([3]; up to about 190° C.)	conversion in slurry experiments ([2]; 0° C.)	conversion in slurry experiments ([2]; 20° C. and 40° C., already after 1 day)	form found by PXRD after slurry ([2]; 1 day)	form found by PXRD after slurry ([2]; 5 days)	TGA mass loss ([3]; up to about 180° C.)	mass change during the sorption cycle ([1]; 10-90% RH)	form found by PXRD after stress test ([4]; 25° C./60% RH)	form found by PXRD after stress test ([4]; 30° C./65% RH)	form found by PXRD after stress test ([4]; 40° C./75% RH)	form found by PXRD after stress test ([4]; RT/97% RH)	TGA mass loss ([3]; from beginning of measurement until about 110° C.) [weight-%]	water corresponding to TGA mass loss ([3]; until about 110° C.)
Cn1cc(-c2cc3c(N4CCN(c5ncc([C@@](C)(N)c6ccc(F)cc6)cn5)CC4)ncnn3c2)cn1 [Form A, (1S)-1-(4-fluorophenyl)-1-(2-[4-[6-(1-methyl-1H-pyrazol-4-yl)pyrrolo[2,1-f][1,2,4]triazin-4-yl]piperazin-1-yl]pyrimidin-5-yl)ethan-1-amine]	about 0.1 weight %	Form A	non-hygroscopic	remained stable	the stable form below its melting point	about 0.3 weight %												
Cn1cc(-c2cc3c(N4CCN(c5ncc([C@@](C)(N)c6ccc(F)cc6)cn5)CC4)ncnn3c2)cn1 [Form B, (1S)-1-(4-fluorophenyl)-1-(2-[4-[6-(1-methyl-1H-pyrazol-4-yl)pyrrolo[2,1-f][1,2,4]triazin-4-yl]piperazin-1-yl]pyrimidin-5-yl)ethan-1-amine]	about 0.3 weight %	Form B	only slightly hygroscopic				partially converted to Form A	fully converted to Form A	B + A	A + B	about 0.3 weight-%							
Cn1cc(-c2cc3c(N4CCN(c5ncc([C@@](C)(N)c6ccc(F)cc6)cn5)CC4)ncnn3c2)cn1 [Form Hy1]		Form Hy1	only slightly hygroscopic									about 1.4 weight %	Hy1	Hy1	Hy1	Hy1	3.5	approximately 1 mol equivalent
